Measurements published in PubChem BioAssay AID330 (DTP/NCI, 2004).
“And” between values parts separate entries of the source, which are not always exact repeats. Equal entries are not always repeated. Toxic doses and inconclusive results are not listed. How the source made its calls: active means survival T/C of 150% or more; inactive means T/C below 125% in these data.

Test system: P388 leukemia ip, CD2F1 mice, survival T/C
Assay: NCI In Vivo Anticancer Drug Screen. Data for tumor model P388 Leukemia (intraperitoneal) in CD2F1 (CDF1) mice
Details: endpoint: median survival time, higher = longer survival
Summary of the method: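 Mice carrying the transplanted tumor received test compound or vehicle. Survival was recorded in each group, and the value is the treated-group measurement divided by that of the vehicle-treated control group.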

[1] = dose: 3.75 mg/kg/injection, schedule: Q01DX005 (ip), vehicle: saline with Tween-80
[2] = dose: 7.5 mg/kg/injection, schedule: Q01DX005 (ip), vehicle: saline with Tween-80
[3] = dose: 15.0 mg/kg/injection, schedule: Q01DX005 (ip), vehicle: saline with Tween-80
[4] = dose: 50.0 mg/kg/injection, schedule: Q01DX009 (ip), vehicle: saline with Tween-80
[5] = dose: 100.0 mg/kg/injection, schedule: Q01DX009 (ip), vehicle: saline with Tween-80
[6] = dose: 200.0 mg/kg/injection, schedule: Q01DX009 (ip), vehicle: saline with Tween-80

Measured: T/C

CCOC(=O)C(C(=O)OCC)C(C)(C)C
inactive: dose: 50.0 mg/kg/injection, schedule: Q01DX009 (ip), vehicle: saline 100 % of control | dose: 100.0 mg/kg/injection, schedule: Q01DX009 (ip), vehicle: saline 102 % of control | dose: 200.0 mg/kg/injection, schedule: Q01DX009 (ip), vehicle: saline 109 % of control | dose: 400.0 mg/kg/injection, schedule: Q01DX009 (ip), vehicle: saline 109 % of control

Cc1[nH]c2cc(Br)ccc2c1/C=N/NC(N)=S
inactive: dose: 100.0 mg/kg/injection, schedule: Q01DX001 (ip), vehicle: Klucel (hydroxypropylcellulose) (HPC) 107 % of control

O=C(Nc1ccc(Br)c2c(NC(=O)c3ccccc3)ccc(Br)c12)c1ccccc1
inactive: dose: 1.5 mg/kg/injection, schedule: Q01DX009 (ip), vehicle: saline with Tween-80 100 % of control | dose: 3.0 mg/kg/injection, schedule: Q01DX009 (ip), vehicle: saline with Tween-80 90 % of control | dose: 6.0 mg/kg/injection, schedule: Q01DX009 (ip), vehicle: saline with Tween-80 90 % of control

CCc1c(NCCCl)c(C(=O)NCCCl)c2nc3ccccc3n2c1NCCCl
inactive: [1] 100 % of control | [2] 106 % of control | [3] 108 % of control

Cc1cc(C)[n+](C)c2cc3ccccc3cc12
inactive: dose: 12.5 mg/kg/injection, schedule: Q01DX005 (ip), vehicle: saline with Tween-80 115 % of control | dose: 50.0 mg/kg/injection, schedule: Q01DX005 (ip), vehicle: saline with Tween-80 109 % of control

COCCCNC1=C(Cl)C(=O)c2ccccc2C1=O
inactive: [4] 99 % of control | [5] 117 % of control | [6] 104 % of control

CC1(C)COCN1CN1COCC1(C)C
inactive: dose: 0.78 mg/kg/injection, schedule: Q04DX003 (ip), vehicle: saline 100 % of control | dose: 1.56 mg/kg/injection, schedule: Q04DX003 (ip), vehicle: saline 101 % of control | dose: 3.13 mg/kg/injection, schedule: Q04DX003 (ip), vehicle: saline 100 % of control | dose: 12.5 mg/kg/injection, schedule: Q04DX003 (ip), vehicle: saline 111 % of control | dose: 25.0 mg/kg/injection, schedule: Q04DX003 (ip), vehicle: saline 102 % of control | dose: 50.0 mg/kg/injection, schedule: Q04DX003 (ip), vehicle: saline 120 % of control | dose: 100.0 mg/kg/injection, schedule: Q04DX003 (ip), vehicle: saline 123 % of control | dose: 200.0 mg/kg/injection, schedule: Q04DX003 (ip), vehicle: saline 107 % of control

N#Cc1cnc2n(c1=N)CCCCC2
inactive: dose: 25.0 mg/kg/injection, schedule: Q04DX003 (ip), vehicle: Klucel (hydroxypropylcellulose) (HPC) 102 % of control | dose: 50.0 mg/kg/injection, schedule: Q04DX003 (ip), vehicle: Klucel (hydroxypropylcellulose) (HPC) 94 % of control | dose: 100.0 mg/kg/injection, schedule: Q04DX003 (ip), vehicle: Klucel (hydroxypropylcellulose) (HPC) 102 % of control

O=C1NN2CCN=C2c2cccnc21
inactive: [1] 100 % of control | [2] 95 % of control | [3] 100 % of control and 93 % of control | dose: 60.0 mg/kg/injection, schedule: Q01DX005 (ip), vehicle: saline with Tween-80 101 % of control

COC(=O)CCCCCCCCCCCCC1C=CCC1 (stereo not given)
inactive: dose: 100.0 mg/kg/injection, schedule: Q01DX001 (ip), vehicle: saline 100 % of control | dose: 200.0 mg/kg/injection, schedule: Q01DX001 (ip), vehicle: saline 104 % of control | dose: 400.0 mg/kg/injection, schedule: Q01DX001 (ip), vehicle: saline 104 % of control

CC(C)N(C(C)C)C1C2=C(CCSC2)OC(=O)C1(Cl)Cl (stereo not given)
inactive: [4] 103 % of control | [5] 100 % of control | [6] 96 % of control

CNC(=O)OCC1=C(COC(=O)NC)C2OC1C(C(=O)OC)=C2c1ccc(Cl)cc1 (stereo not given)
inactive: dose: 1.56 mg/kg/injection, schedule: Q01DX009 (ip), vehicle: distilled water + Tween-80 100 % of control | dose: 3.13 mg/kg/injection, schedule: Q01DX009 (ip), vehicle: distilled water + Tween-80 92 % of control | dose: 6.25 mg/kg/injection, schedule: Q01DX009 (ip), vehicle: distilled water + Tween-80 108 % of control | dose: 12.5 mg/kg/injection, schedule: Q01DX009 (ip), vehicle: distilled water + Tween-80 90 % of control and 94 % of control | dose: 25.0 mg/kg/injection, schedule: Q01DX009 (ip), vehicle: distilled water + Tween-80 88 % of control | dose: 50.0 mg/kg/injection, schedule: Q01DX009 (ip), vehicle: distilled water + Tween-80 88 % of control | dose: 100.0 mg/kg/injection, schedule: Q01DX009 (ip), vehicle: distilled water + Tween-80 88 % of control | dose: 200.0 mg/kg/injection, schedule: Q01DX009 (ip), vehicle: distilled water + Tween-80 101 % of control
